Like-named read-outs stand apart in the source and are kept apart here. Marks after values point to notes of the source that are not given here.
Tests used:
[1] = In vivo CT of filler nodule volume, density and 3D shape after test solutions 0-8 (Example 3)
Protocol: One hour after filler injections (T=1 h), 1.5 mL of selected solutions (Table 5, solutions 0-8, test items, solution 0 is normal saline and not hyperosmotic) were injected each into 9 dermal filler nodules in the right flank (ventral area).
(§1) A total of 7 CT-scans were performed at 1 h 15, 2 h, 4 h, 1 day (24 h), 3, 7 and 14 days after injection of the dermal filler. The clinical state of each animal is assessed once a week by body weight measurement and clinical observations.
The 10 SC injections of dermal filler on Day 0 were performed in the ventral area, (five nodules on each flank of the ventral area) for each pig. For each SC nodule, a theoretical volume of 500 μl was administered. One hour (±5 min) after injection of dermal filler, SC injection of the different solutions (prepared the day before) were performed into nine (9) nodules of dermal. For each SC nodule, a theoretical volume of 1.5 mL of test solution was administered.
The X-ray computed tomography acquisitions were performed with the Computed Tomography Scanner BrightSpeed 16 (General Electric). In order to measure the volume and the mean density and to visualize the 3D shape of the dermal filler (Radiesse® filler with or without test solution) injected, in vivo CT-scans were performed on Day 0: 1 h 15 (±10 min), 2 h (±15 min) and 4 h (±20 min), on Day 1 (24 h+1 h), Day 3, Day 7 and Day 14.
During CT acquisition on Day 0, the pigs received an IM injection of anesthesia. The animals were maintained under anesthesia until the CT acquisition at T=2 h (2 h after dermal filler injection session). Between these CT acquisitions, the animals were under surveillance in the recovery room on a heating mat with fluidotherapy. At the end of the CT acquisition at T=2 h, the pigs received a tattoo around each injected site. During the CT acquisitions at T=4 h and on Days 1, 3, 7 and 14, pigs received an IM injection of anesthesia. For the CT-scans, animals were positioned in dorsal recumbency and acquisitions were centered on the injection sites. The parameters of the CT-scan are described in Table 5.
The CT acquisition was analyzed with the software Avizo version 9.2.0. The objective of this analysis was to assess the degradation over time of the dermal filler injected by SC route after injection of different test solutions.
An image segmentation processing was performed on each CT acquisition. First, a manual pre-segmentation was performed around each nodule in order to roughly isolate the voxels corresponding to dermal filler product, which defined a Region of Interest (ROI). Second, an automatic segmentation was applied on the previously defined ROI using a global grey level thresholding procedure.
On day 0, a farm pig received ten (10) SC injections of Radiesse® dermal filler 0.5 mL (ventral area) (10 nodules in total). One hour after filler injections (T=1 h), 1.5 mL of one of eight test hyperosmotic solutions (1-8 solutions, Table 5) was injected at an injection site. One injection site was untreated and one injection site was treated with normal saline (0.9% wt/v NaCl).

[2] = SC injection of 1.5 mL into filler nodule
Protocol: as §1
On day 14, one pig received one SC injection of Radiesse® filler in order to represented a Day 0 injection which is considered a positive control and then, all pigs were euthanized and each nodule with a part of the skin, along with negative control skin (skin samples without injection), were sampled in order to perform histological analysis of, for example, the inflammation, the necrosis and the dermal filler presence at the injection site.

[Ca+2].[Cl-].[Cl-] [sol 4, Calcium chloride]
nodule visibility / degradation of filler at end of study ([1]; Day 14, CT 3D models): largely degraded/dispersed the Radiesse® dermal filler
Change in Volume as percent of Injected Volume, Day 14/15 ([1]; Example 3 (Day 14), mean): 169.73* percent
Change in Volume as percent of Injected Volume, Day 0 + 2 h ([1]; Example 3, mean): 162.46%
Change in Volume as percent of Injected Volume, Day 0 + 4 h ([1]; Example 3, mean): 157.72%
Change in Volume as percent of Injected Volume, Day 1 ([1]; Example 3, mean): 145.42* percent
Change in Volume as percent of Injected Volume, Day 3 ([1]; Example 3, mean): 174.24* percent
Change in Volume as percent of Injected Volume, Day 7 ([1]; Example 3, mean): 175.91* percent
Change in Volume as percent of Injected Volume, Day 0 + 1 h 15 ([1]; Example 3, mean, 1.5 mL solution into 500 μl nodule): 170.60* percent
local tolerance at injection site [2]: large wound on pigs
local tolerance at injection site ([2]; listed as CaCl2): strong local irritating effect
local tolerance at injection site ([2]; listed as ClCl2): severe skin necrosis
